A word on the Emax: it is the maximal effect, on the per cent scale that the assay sets. The EC50 is the concentration needed to bring the measured effect to its halfway point. Low readings indicate a more potent agent, high ones a less potent agent.

The experiment concerns the target T1, Kv7.2 (Homo sapiens, UniProt O43526).
T1 construct: expressed in transfected cells
In words: Activation of Kv7.2 (in vitro assay, concentration response curve). The format is cell-based. The settings on record: for Emax: Kv7.2 activation max %; for EC50: activation of Kv7.2. As to the method:
The term “EC50” in this application is defined as: the agonistic effect of a compound can be determined by testing the compound in an in vitro assay as described herein, whereby the effect of the compound is measured across a range of compound concentrations. The resulting data is plotted as a concentration response curve, which typically follows a sigmoidal function, whereby the concentration of the compound is plotted on the x axis and the response (agonistic effect) is plotted on the y axis. The term “EC50” is the “half maximal effective concentration” and denotes the concentration of a particular compound required to obtain 50% of the maximum response (Emax) which is observed for that compound in the given in vitro assay.

Molecules are shown by their SMILES.

Regarding `O=C(NCc1ccnc(-n2cccn2)c1)N[C@@H]1C[C@H]2CC[C@@H]1C2` [Example 16, 1-[(1R,2R,4S)-2-bicyclo[2.2.1]heptanyl]-3-[(2-pyrazol-1-ylpyridin-4-yl)methyl]urea], the Emax worked out at 73% and the EC50 turned out to be 390 nM.
Take `CC(NC(=O)NCc1ccnc(OC(F)F)c1)C1CCC1` (stereo not shown) [Example 17, 1-(1-cyclobutylethyl)-3-[[2-(difluoromethoxy)pyridin-4-yl]methyl]urea]: the maximal response (Emax) came to 51% and the EC50 amounted to 510 nM.
For `CC1(C)CCC(NC(=O)NCc2ccnc(OC3COC3)c2)CC1` [Example 18, 1-(4,4-dimethylcyclohexyl)-3-[[2-(oxetan-3-yloxy)pyridin-4-yl]methyl]urea], the Emax was 71% and the EC50 was determined as 270 nM.
For the compound `O=C(NCc1ccnc(OC(F)F)c1)NC1CCCC1` [Example 20, 1-cyclopentyl-3-[[2-(difluoromethoxy)pyridin-4-yl]methyl]urea], the maximal effect (Emax) turned out to be 57% and a half-maximal response (EC50) required 390 nM.
With `O=C(NCc1ccnc(OCC(F)(F)F)c1)NCC1CCC1` [Example 21, 1-(cyclobutylmethyl)-3-[[2-(2,2,2-trifluoroethoxy)pyridin-4-yl]methyl]urea], the Emax came to 52% and the EC50 is 190 nM.
Compound `O=C(NCc1ccnc(OC(F)F)c1)Nc1cccc(Cl)c1` [Example 22, 1-(3-chlorophenyl)-3-[[2-(difluoromethoxy)pyridin-4-yl]methyl]urea] displayed an Emax of 41% and an EC50 of 30 nM.
As to `O=C(NCc1ccnc(OC(F)F)c1)N[C@@H]1CCOc2ccccc21` [Example 23, 1-[[2-(difluoromethoxy)pyridin-4-yl]methyl]-3-[(4R)-3,4-dihydro-2H-chromen-4-yl]urea], the Emax was 52% and the EC50 came out at 130 nM.
`CC(NC(=O)NCc1ccnc(OC(F)F)c1)C1CC2CCC1C2` (stereo not shown) [Example 24, 1-[1-(2-bicyclo[2.2.1]heptanyl)ethyl]-3-[[2-(difluoromethoxy)pyridin-4-yl]methyl]urea]: the Emax turned out to be 76% and the EC50 stood at 20 nM.
For `CC1CCCC(C)C1NC(=O)NCc1ccnc(OC(F)F)c1` (stereo not shown) [Example 25, 1-[[2-(difluoromethoxy)pyridin-4-yl]methyl]-3-(2,6-dimethylcyclohexyl)urea], in that order: 75% and 30 nM.
The compound `CC(C)(C)CNC(=O)NCc1ccnc(OC(F)F)c1` [Example 29, 1-[[2-(difluoromethoxy)pyridin-4-yl]methyl]-3-(2,2-dimethylpropyl)urea] returned an Emax of 63% and a concentration for a half-maximal effect (EC50) of 570 nM.
The compound `O=C(NCc1ccnc(OC(F)F)c1)NCC12CC(C1)C2` [Example 31, 1-(1-bicyclo[1.1.1]pentanylmethyl)-3-[[2-(difluoromethoxy)pyridin-4-yl]methyl]urea] gave an Emax of 57% and an EC50 of 420 nM.
`O=C(NCc1ccnc(OC(F)F)c1)NCC12CC(F)(C1)C2` [Example 32, 1-[[2-(difluoromethoxy)pyridin-4-yl]methyl]-3-[(3-fluoro-1-bicyclo[1.1.1]pentanyl)methyl]urea] showed an Emax of 42% and an EC50 of 830 nM.
For `CC1(C)CCC(NC(=O)NCc2ccnc(-n3ccnc3)c2)CC1` [Example 37, 1-(4,4-dimethylcyclohexyl)-3-[(2-imidazol-1-ylpyridin-4-yl)methyl]urea], in that order: 59% and 1310 nM.
For `COC1(CNC(=O)NCc2ccnc(OC(F)F)c2)CCC1` [Example 38, 1-[[2-(difluoromethoxy)pyridin-4-yl]methyl]-3-[(1-methoxycyclobutyl)methyl]urea], in that order: 73% and 3730 nM.
Regarding `CC(C)(F)CNC(=O)NCc1ccnc(OC(F)F)c1` [Example 39, 1-[[2-(difluoromethoxy)pyridin-4-yl]methyl]-3-(2-fluoro-2-methylpropyl)urea], the Emax stood at 55% and the EC50 was 1950 nM.
Take `O=C(NCc1ccnc(OC(F)F)c1)NCC1(F)CCC1` [Example 40, 1-[[2-(difluoromethoxy)pyridin-4-yl]methyl]-3-[(1-fluorocyclobutyl)methyl]urea]: the Emax was determined as 58% and the EC50 stood at 640 nM.
`O=C(NCc1ccnc(-n2cnc(C(F)(F)F)c2)c1)NCC1CCC1` [Example 41, 1-(cyclobutylmethyl)-3-[[2-[4-(trifluoromethyl)imidazol-1-yl]pyridin-4-yl]methyl]urea] gave an Emax of 40% and an EC50 of 1130 nM.
`O=C(NCc1ccnc(OC(F)F)c1)N[C@H]1C[C@H](C(F)(F)F)C1` [Example 42, 1-[[2-(difluoromethoxy)pyridin-4-yl]methyl]-3-[(1r,3r)-3-(trifluoromethyl)cyclobutyl]urea] registered an Emax of 58% and an EC50 of 70 nM.
For `O=C(NCc1ccnc(OCC(F)(F)F)c1)NC1CCCC1` [Example 43, 1-cyclopentyl-3-[[2-(2,2,2-trifluoroethoxy)pyridin-4-yl]methyl]urea], in that order: 75% and 140 nM.
For `CC(C)(C)CC1(NC(=O)NCc2ccnc(OC(F)F)c2)CC1` [Example 44, 1-[[2-(difluoromethoxy)pyridin-4-yl]methyl]-3-[1-(2,2-dimethylpropyl)cyclopropyl]urea], in that order: 75% and 480 nM.
For `O=C(NCc1ccnc(OC(F)F)c1)NC1CCC1` [Example 45, 1-cyclobutyl-3-[[2-(difluoromethoxy)pyridin-4-yl]methyl]urea], in that order: 62% and 1230 nM.
For the compound `O=C(NCc1ccnc(OC(F)F)c1)NCC1CCCC1` [Example 46, 1-(cyclopentylmethyl)-3-[[2-(difluoromethoxy)pyridin-4-yl]methyl]urea], the Emax came out at 64% and the response was half-maximal at 210 nM (EC50).
`O=C(NCc1ccnc(OC(F)F)c1)NC12CC(C1)C2` [Example 47, 1-(1-bicyclo[1.1.1]pentanyl)-3-[[2-(difluoromethoxy)pyridin-4-yl]methyl]urea]: the Emax came to 65% and the EC50 came out at 1510 nM.
In the case of `O=C(NCc1ccnc(OC(F)F)c1)NC12CCC(F)(CC1)CC2` [Example 48, 1-[[2-(difluoromethoxy)pyridin-4-yl]methyl]-3-(4-fluoro-1-bicyclo[2.2.2]octanyl)urea], the Emax came to 54% and the EC50 is 160 nM.
Regarding `COC12CC(NC(=O)NCc3ccnc(OC(F)F)c3)(C1)C2` [Example 49, 1-[[2-(difluoromethoxy)pyridin-4-yl]methyl]-3-(3-methoxy-1-bicyclo[1.1.1]pentanyl)urea], the Emax was 48% and the EC50 stood at 1830 nM.
The compound `O=C(NCc1ccnc(OC(F)F)c1)NC1(C2CCC2)CC1` [Example 50, 1-(1-cyclobutylcyclopropyl)-3-[[2-(difluoromethoxy)pyridin-4-yl]methyl]urea] showed an Emax of 56% and an EC50 of 300 nM.
`O=C(NCc1ccnc(OCC2CCC2)c1)N[C@H]1C[C@H](C(F)(F)F)C1` [Example 54, 1-[[2-(cyclobutylmethoxy)pyridin-4-yl]methyl]-3-[(1r,3r)-3-(trifluoromethyl)cyclobutyl]urea] gave a maximal effect (Emax) of 62% and an EC50 of 150 nM.
`O=C(NCc1ccnc(OCC2CC2)c1)N[C@H]1C[C@H](C(F)(F)F)C1` [Example 55, 1-[[2-(cyclopropylmethoxy)pyridin-4-yl]methyl]-3-[(1r,3r)-3-(trifluoromethyl)cyclobutyl]urea] showed an Emax of 51% and an EC50 of 300 nM.
`O=C(NCc1ccnc(OCC(F)F)c1)N[C@H]1C[C@H](C(F)(F)F)C1` [Example 56, 1-[[2-(2,2-difluoroethoxy)pyridin-4-yl]methyl]-3-[(1r,3r)-3-(trifluoromethyl)cyclobutyl]urea] showed an Emax of 56% and an EC50 of 340 nM.
Consider `CC(F)(F)c1cc(CNC(=O)N[C@H]2C[C@H](C(F)(F)F)C2)ccn1` [Example 57, 1-[[2-(1,1-difluoroethyl)pyridin-4-yl]methyl]-3-[(1r,3r)-3-(trifluoromethyl)cyclobutyl]urea], for which the Emax was 60% and a half-maximal effect (EC50) was put at 610 nM.
For `O=C(NCc1ccnc(C(F)(F)F)c1)N[C@H]1C[C@H](C(F)(F)F)C1` [Example 58, 1-[(1r,3r)-3-(trifluoromethyl)cyclobutyl]-3-[[2-(trifluoromethyl)pyridin-4-yl]methyl]urea], in that order: 42% and 340 nM.
For the compound `CCC1CC(NC(=O)NCc2ccnc(OC(F)F)c2)C1` (stereo not shown) [Example 60, 1-[[2-(difluoromethoxy)pyridin-4-yl]methyl]-3-(3-ethylcyclobutyl)urea], the Emax was determined as 77% and the EC50 came to 140 nM.
In turn, `O=C(NCc1ccnc(OC(F)F)c1)NCC1CC(C(F)(F)F)C1` (stereo not shown) [Example 62, 1-[[2-(difluoromethoxy)pyridin-4-yl]methyl]-3-[[3-(trifluoromethyl)cyclobutyl]methyl]urea] yielded an Emax of 43% and an EC50 of 750 nM.
`N#CCOc1cc(CNC(=O)N[C@H]2C[C@H](C(F)(F)F)C2)ccn1` [Example 63, 1-[[2-(cyanomethoxy)pyridin-4-yl]methyl]-3-[(1r,3r)-3-(trifluoromethyl)cyclobutyl]urea]: the Emax amounted to 66% and a half-maximal effect (EC50) was put at 250 nM.
Regarding `O=C(NCc1ccnc(CC(F)(F)F)c1)N[C@H]1C[C@H](C(F)(F)F)C1` [Example 64, 1-[[2-(2,2,2-trifluoroethyl)pyridin-4-yl]methyl]-3-[(1r,3r)-3-(trifluoromethyl)cyclobutyl]urea], the Emax worked out at 70% and the EC50 turned out to be 340 nM.

The values above are taken from patent publication US20250074901A1, “NOVEL HETEROARYL COMPOUNDS” (ICAGEN, LLC, priority 2021, published 2025).
